Measurements from patent publication US8735384B2, “Amino heteroaryl compounds as beta-secretase modulators and methods of use” (Amgen Inc., priority 2010, dated 2014).

Columns and labels:
[1] = target: BACE1 (Homo sapiens, UniProt P56817); experiment: In vitro enzymatic BACE FRET assay; assay type: biochemical; settings: beta secretase enzyme 0.2 nM, FRET substrate 50 nM, pH 4.2; read-out: BACE1 FRET assay (IC50 class)
Procedure, shortened: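 Beta-secretase (0.2 nM) was pre-incubated 1 h with serially diluted inhibitor in 0.05 M acetate pH 4.2, 10% DMSO, 100 uM genapol. Then 50 nM quenched peptide FRET substrate was added for 1 h. The reaction was stopped with Tris to neutral pH and fluorescence read ([…]).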

[2] = tested on: Aβ40 in conditioned medium of cells stably expressing Amyloid Precursor Protein (APP); experiment: In vitro BACE cell-based assay (HEK cell assay), Aβ40 sandwich ELISA; settings: Homo sapiens, HEK293, 24 h, inhibition of Aβ40, 24 h incubation, read-out: HEK cell assay (IC50 class)
Procedure, shortened: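 APP-stably expressing cells (40K/well) grown 24 h, then treated 24 h with 10-point doses from 100 μM or 10 μM top (0.1% DMSO). Secreted Aβ40 quantified by sandwich ELISA (pAb40 capture, biotinylated 6E10 detection, europium time-resolved fluorescence); IC50 from percent inhibition versus concentration.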

BACE1, sequence (P56817 46-501, species assumed): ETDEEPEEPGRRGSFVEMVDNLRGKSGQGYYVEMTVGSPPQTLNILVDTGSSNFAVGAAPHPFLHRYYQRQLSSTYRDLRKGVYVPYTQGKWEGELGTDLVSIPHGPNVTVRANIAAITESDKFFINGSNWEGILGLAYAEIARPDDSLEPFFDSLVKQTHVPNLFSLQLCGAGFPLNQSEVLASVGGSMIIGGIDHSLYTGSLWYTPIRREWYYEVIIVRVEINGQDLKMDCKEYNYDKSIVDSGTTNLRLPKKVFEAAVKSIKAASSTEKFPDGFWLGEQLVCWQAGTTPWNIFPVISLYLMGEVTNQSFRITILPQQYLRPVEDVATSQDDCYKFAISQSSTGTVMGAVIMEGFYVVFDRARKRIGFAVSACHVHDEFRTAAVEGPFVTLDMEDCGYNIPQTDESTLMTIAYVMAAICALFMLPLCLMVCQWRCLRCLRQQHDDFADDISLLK

| Compound | IC50 [1] [µM] | IC50 [2] [µM] |
| --- | --- | --- |
| CC(C)(C)CC(=O)c1cccc(C(=O)N2CCCC2)c1-c1ccc2nc(N)c(N3CCOCC3)cc2c1 [Example 46, 1-(2-(2-amino-3-morpholinoquinolin-6-yl)-3-(pyrrolidine-1-carbonyl)phenyl)-3,3-dimethylbutan-1-one] | < 0.1 | 0.1 to 0.5 |
| Cc1cccc(Cc2ccc(F)cc2)c1-c1ccc2nc(N)c(N3CCOCC3)cc2c1 [Example 201, 6-(2-(4-fluorobenzyl)-6-methylphenyl)-3-morpholinoquinolin-2-amine] | < 0.1 | 1.01 to 5 |
| COc1cccnc1C(N)c1cccc(C)c1-c1ccc2nc(N)c(N3CCOCC3)cc2c1 (stereo not shown) [Example 198, 6-(2-(amino(3-methoxypyridin-2-yl)methyl)-6-methylphenyl)-3-morpholinoquinolin-2-amine] | 0.1 to 0.5 | < 0.1 |
| Cc1cccc(C(=O)N2CCC(C(F)(F)F)C2)c1-c1ccc2nc(N)c(N3CCOCC3)cc2c1 (stereo not shown) [Example 96, (2-(2-amino-3-morpholinoquinolin-6-yl)-3-methylphenyl)(3-(trifluoromethyl)pyrrolidin-1-yl)methanone] | < 0.1 | 1.01 to 5 |
| Nc1nc2ccc(-c3ccc(F)cc3C(=O)N3CCC3)cc2cc1N1CCOCC1 [Example 128, (2-(2-amino-3-morpholinoquinolin-6-yl)-5-fluorophenyl)(azetidin-1-yl)methanone] | 1.01 to 5 | > 5 |
| Cc1ccccc1C(N)c1cccc(C)c1-c1ccc2nc(N)c(N3CCOCC3)cc2c1 (stereo not shown) [Example 193, 6-(2-(amino(o-tolyl)methyl)-6-methylphenyl)-3-morpholinoquinolin-2-amine] | < 0.1 | < 0.1 |
| Cc1cccc(C(O)c2cnccn2)c1-c1ccc2nc(N)c(N3CCOCC3)cc2c1 (stereo not shown) [Example 36, (2-(2-amino-3-morpholinoquinolin-6-yl)-3-methylphenyl)(pyrazin-2-yl)methanol] | 1.01 to 5 | 1.01 to 5 |
| Cc1cccc(C(=O)N(C)C2CCC(C)CC2)c1-c1ccc2nc(N)c(N3CCOCC3)cc2c1 (stereo not shown) [Example 122, 2-(2-amino-3-morpholinoquinolin-6-yl)-N,3-dimethyl-N-(4-methylcyclohexyl)benzamide] | < 0.1 | 0.501 to 1 |
| Cc1cccc(C(=O)N2CCOC(C)(C)C2)c1-c1ccc2nc(N)c(N3CCOCC3)cc2c1 [Example 43, (2-(2-amino-3-morpholinoquinolin-6-yl)-3-methylphenyl)(2,2-dimethylmorpholino)methanone] | 0.1 to 0.5 | 1.01 to 5 |
| Cc1cccc(C(=O)N2CCC[C@H]2C(F)(F)F)c1-c1ccc2nc(N)c(N3CCOCC3)cc2c1 [Example 94, (S)-(2-(2-amino-3-morpholinoquinolin-6-yl)-3-methylphenyl)(2-(trifluoromethyl)pyrrolidin-1-yl)methanone] | 0.1 to 0.5 | 1.01 to 5 |
| Cc1coc(-c2cccc(C)c2-c2ccc3nc(N)c(N4CCOCC4)cc3c2)n1 [Example 31, 6-(2-methyl-6-(4-methyloxazol-2-yl)phenyl)-3-morpholinoquinolin-2-amine] | 0.1 to 0.5 | > 5 |
| COCCC1CCCCN1C(=O)c1cccc(C)c1-c1ccc2nc(N)c(N3CCOCC3)cc2c1 (stereo not shown) [Example 83, (2-(2-amino-3-morpholinoquinolin-6-yl)-3-methylphenyl)(2-(2-methoxyethyl)piperidin-1-yl)methanone] | 0.1 to 0.5 | 1.01 to 5 |
| Cc1cccc(C(=O)N(C)C2CCCC2)c1-c1ccc2nc(N)c(N3CCOCC3)cc2c1 [Example 92, 2-(2-amino-3-morpholinoquinolin-6-yl)-N-cyclopentyl-N,3-dimethylbenzamide] | < 0.1 | 0.501 to 1 |
| Cc1cccc(C(=O)N2CCCC2)c1-c1cc2cc(N3CCOCC3)c(N)nc2cc1F [Example 39, (2-(2-amino-7-fluoro-3-morpholinoquinolin-6-yl)-3-methylphenyl)(pyrrolidin-1-yl)methanone] | < 0.1 | 0.501 to 1 |
